Test results: patent publication US6723747B2, “Substituted 6H-DiBenzo[c,h]chromenes as estrogenic agents” (Wyeth, priority 2001, dated 2004)

What was measured:
human ERβ = target: T1, human ERβ (Homo sapiens, UniProt Q92731); test: Radioligand binding competition with [3H]-17β-estradiol, ERβ; conditions: human ERβ ligand binding domain, read-out: ER-β IC50
T1 construct: M214-Q530 of human ERβ; Flag (C); made in house; host or cells: E. coli BL21(DE3), clarified lysate

human ERα = target: T2, human ERα (Homo sapiens, UniProt P03372); test: Radioligand binding competition with [3H]-17β-estradiol, ERα; conditions: human ERα ligand binding domain, read-out: ER-α IC50
T2 construct: amino acids M250-V595 of human ERα; His (N); made in house; host or cells: E. coli BL21(DE3), clarified lysate
T2 sequence (P03372 250-595): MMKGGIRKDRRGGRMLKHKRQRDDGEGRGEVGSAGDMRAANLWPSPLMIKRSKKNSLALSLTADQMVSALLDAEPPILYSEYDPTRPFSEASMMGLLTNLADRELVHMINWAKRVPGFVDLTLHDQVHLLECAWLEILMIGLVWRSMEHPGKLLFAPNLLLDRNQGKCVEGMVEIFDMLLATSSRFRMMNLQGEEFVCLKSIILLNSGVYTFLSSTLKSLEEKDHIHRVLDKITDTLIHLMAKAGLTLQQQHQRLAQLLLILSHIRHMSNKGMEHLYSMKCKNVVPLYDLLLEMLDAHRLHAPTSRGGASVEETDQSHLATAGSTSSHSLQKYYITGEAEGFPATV

129 SvE mice = test: Mouse uterotrophic test procedure (Procedure 2); format: in vivo; conditions: 50 mg/kg subcutaneously, 4 days, immature mice
Protocol: Procedure 2: Sexually immature (18 days of age) 129 SvE mice were obtained from Taconic and provided unrestricted access to a casein-based diet (Purina Mills 5K96C) and water. On day 22, 23, 24 and 25 the mice were dosed subcutaneously with compound or vehicle (corn oil). There were six mice/group and they were euthanized approximately 6 hours after the last injection by CO2 asphyxiation and pneumothorax. Uteri were removed and weighed after trimming associated fat and expressing any internal fluid. The following results (Table (2)) were obtained for representative compounds from the invention.

[1] = system: progesterone receptor mRNA in the preoptic area of the rat brain; test: Progesterone receptor mRNA regulation test procedure; format: in vivo; conditions: 10 mg/kg, vehicle 4.3 ± 1.5
Excerpt: This test procedure can be used to evaluate the estrogenic or antiestrogenic activity of compounds from this invention [Shughrue, et al., Endocrinology 138: 5476-5484 (1997)].

casein kinase II mRNA = test: Mammary end bud test procedure (rat mammotrophic assay); format: in vivo; conditions: 0.1 mg/kg sc + progesterone 30 mg/kg; ovariectomized rats; vehicle 1.61 ± 0.36
Protocol: Estrogens are required for full ductal elongation and branching of the mammary ducts, and the subsequent development of lobulo-alveolar end buds under the influence of progesterone. In this test procedure, the mammotrophic activity of selected compounds of the invention was evaluated according to the following standard pharmacological test procedure. Twenty-eight day old Sprague-Dawley rats (Taconic Farms, Germantown, N.Y.) were ovariectomized and rested for nine days. […] For the final three days, rats were also dosed subcutaneously with progesterone (30 mg/kg). On the seventh day, rats were euthanised and a mammary fat pad excised. This fat pad was analyzed for casein kinase II mRNA as a marker of end bud proliferation. Casein kinase II mRNA was anlayzed by real-time RT-PCR. Briefly, RNA was isolated following Trizol (GibcoBRL, Grand Island, N.Y.) according to the manufacture's directions, Samples were treated with DNAse I using DNA-free kit (Ambion), and casein kinase II mRNA levels were measured by real-time RT-PCR using the Taqman Gold procedure (PE Applied Biosystems). […] Casein kinase II mRNA levels were normalized to 18s ribosomal RNA contained within each sample reaction using primers and probe supplied by PE Applied Biosystems. The following results were obtained for an example of the invention (Table (4)).

[2] = second experiment, vehicle 10.3 ± 0.8

T1 sequence (Q92731 214-530): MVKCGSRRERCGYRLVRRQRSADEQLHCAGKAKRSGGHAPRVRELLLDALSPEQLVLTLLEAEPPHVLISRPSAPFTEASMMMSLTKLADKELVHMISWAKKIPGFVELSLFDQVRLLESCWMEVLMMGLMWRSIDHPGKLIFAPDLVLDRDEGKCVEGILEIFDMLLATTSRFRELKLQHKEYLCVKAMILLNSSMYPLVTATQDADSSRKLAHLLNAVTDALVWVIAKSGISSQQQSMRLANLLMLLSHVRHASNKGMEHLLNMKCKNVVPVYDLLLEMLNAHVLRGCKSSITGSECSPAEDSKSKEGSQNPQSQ

SMILES	IC50 (human ERβ)	IC50 (human ERα)	melting point	mean uterine weight ± SEM (129 SvE mice; [2])	Progesterone receptor mRNA (mean ± stdev) [1]	mean uterine weight ± SEM (129 SvE mice; first experiment, vehicle 9.5 ± 0.3)	Casein kinase II mRNA/18S rRNA (mean ± SEM) (casein kinase II mRNA)
Oc1ccc2c(c1)COc1c-2ccc2c(O)cccc12 [Example 1u, 6H-dibenzo[c,h]chromene-1,8-diol]	1.4 nM	17 nM	213 to 214 °C				
C=Cc1cc2c(c3ccc(O)cc13)OCc1cc(O)ccc1-2 [Example 1o, 12-Vinyl-6H-dibenzo[c,h]chromene-2,8-diol]	2.3 nM	81 nM	> 220 °C				
Oc1ccc2c(c1)COc1c-2cc(Br)c2c(O)cccc12 [Example 1w, 12-Bromo-6H-dibenzo[c,h]chromene-1,8-diol]	1.4 nM	10 nM					
Oc1ccc2c3c(cc(Br)c2c1)-c1cc(F)c(O)cc1CO3 [Example 1j, 12-Bromo-9-fluoro-6H-dibenzo[c,h]chromene-2,8-diol]	2 nM	77 nM	194 to 197 °C				
Oc1ccc2c3c(ccc2c1)-c1cc(F)c(O)cc1CO3 [Example 1b, 9-Fluoro-6H-dibenzo[c,h]chromene-2,8-diol]	1.8 nM	20 nM	230 to 231 °C (dec.)				
Oc1ccc2c(c1)COc1c-2cc(Br)c2cc(O)ccc12 [Example 1h, 12-Bromo-6H-dibenzo[c,h]chromene-2,8-diol]	0.9 nM	26 nM	178 to 180 °C (dec.)				
Cc1cc2c(c3ccc(O)cc13)OCc1cc(O)ccc1-2 [Example 1n, 12-Methyl-6H-dibenzo[c,h]chromene-2,8-diol]	2.7 nM	102 nM	220 to 224 °C (dec.)				
COc1c(Cl)c2c(c3ccc(O)cc13)OCc1cc(O)ccc1-2 [Example 1m, 11-Chloro-12-methoxy-6H-dibenzo[c,h]chromene-2,8-diol]	0.27 nM	10.4 nM					
Oc1ccc2c(c1)COc1c-2cc(-c2cccs2)c2cc(O)ccc12 [Example 1r, 12-Thien-2-yl-6H-dibenzo[c,h]chromene-2,8-diol]	48.3 nM	217 nM	191 to 193 °C				
Oc1ccc2c(c1)COc1c-2cc(Cl)c2c(O)cccc12 [Example 1v, 12-Chloro-6H-dibenzo[c,h]chromene-1,8-diol]	0.9 nM	4.5 nM					
N#Cc1cc2c(c3ccc(O)c(Cl)c13)OCc1cc(O)ccc1-2 [Example 1f, 1-Chloro-2,8-dihydroxy-6H-dibenzo[c,h]chromene-12-carbonitrile]	3.5 nM	156 nM	> 250 °C				
Oc1ccc2c(c1)COc1c-2ccc2c(O)ccc(Cl)c12 [Example 1z, 4-chloro-6H-dibenzo[c,h]chromene-1,8-diol]	0.8 nM	10 nM					
N#Cc1cc2c(c3ccc(O)cc13)OCc1cc(O)c(F)cc1-2 [Example 1e, 9-fluoro-2,8-dihydroxy-6H-dibenzo[c,h]chromene-12-carbonitrile]	19 nM	1230 nM	> 250 °C				
COc1cc2c(c3ccc(O)cc13)OCc1cc(O)ccc1-2 [Example 1l, 12-Methoxy-6H-dibenzo[c,h]chromene-2,8-diol]	16 nM	147 nM	224 °C (dec.)				
Oc1ccc2c(c1)COc1c-2ccc2cc(O)ccc12 [Example 1a, 6H-Dibenzo[c,h]chromene-2,8-diol]	3.3 nM	74 nM	248 to 252 °C (dec.)				
Oc1ccc2c(c1)COc1c-2ccc2ccccc12 [Example 1c, 6H-Dibenzo[c,h]chromen-8-ol]	79.7 nM	460 nM	192 to 194 °C				
Oc1ccc2c(c1)COc1c-2cc(Cl)c2cc(O)ccc12 [Example 1i, 12-Chloro-6H-dibenzo[c,h]chromene-2,8-diol]	1.1 nM	17 nM	212 to 216 °C (dec.)	28.9 ± 2.0 mg	57.5 ± 14.0 arbitrary units		
Oc1ccc2c3c(cc(Cl)c2c1)-c1cc(F)c(O)cc1CO3 [Example 1k, 12-Chloro-9-fluoro-6H-dibenzo[c,h]chromene-2,8-diol]	2 nM	27 nM	215 to 220 °C (dec.)				
C[C@]12CC[C@@H]3c4ccc(O)cc4CC[C@H]3[C@@H]1CC[C@@H]2O [17β-estradiol, reference compound]				45.3 ± 1.9 mg		46.7 ± 2.5 mg	39.0 ± 5.4
N#Cc1cc2c(c3cccc(O)c13)OCc1cc(O)ccc1-2 [Example 1x, 1,8-Di hydroxy-6H-di benzo[c,h]chromene-12-carbonitrile]	1.5 nM	86 nM					
Oc1ccc2c(c1)COc1c-2cc(-c2ccsc2)c2cc(O)ccc12 [Example 1q, 12-Thien-3-yl—6H-dibenzo[c,h]chromene-2,8-diol]	29.2 nM	154 nM	179 to 182 °C				
CCc1cc2c(c3ccc(O)cc13)OCc1cc(O)ccc1-2 [Example 1p, 12-Ethyl-6H-dibenzo[c,h]chromene-2,8-diol]	2.9 nM	44 nM	184 to 192 °C				
Oc1ccc2c(c1)COc1c-2ccc2c(Cl)c(O)ccc12 [Example 1g, 1-Chloro-6H-dibenzo[c,h]chromene-2,8-diol]	2.7 nM	74 nM	216 to 218 °C				
CCCCc1cc2c(c3ccc(O)cc13)OCc1cc(O)ccc1-2 [Example 1s, 12-Butyl-6H-dibenzo[c,h]chromene-2,8-diol]	3 nM	71 nM	118 to 121 °C				
CCCc1cc2c(c3ccc(O)cc13)OCc1cc(O)ccc1-2 [Example 1t, 12-Propyl-6H-dibenzo[c,h]chromene-2,8-diol]	11 nM	160 nM	86 to 95 °C				
Oc1ccc2c(c1)COc1c-2ccc2c(O)c(Cl)ccc12 [Example 1y, 2-Chloro-6H-dibenzo[c,h]chromene-1,8-diol]	1.65 nM	17.6 nM	181 to 182 °C (dec.)				
